This note sets out measurements from patent US20160368895A1, “PULMONARY HYPERTENSION TREATING AGENT” (THE UNIVERSITY OF TOKYO, priority 2013, published 2016).

Structures are written as SMILES.

In assay [1] the target is T1, human PGI2 receptors (hIP) (Homo sapiens, UniProt P43119).
T1 construct: expressed in transfected cells; host or cells: CHO-K1
In words: Method C: effect on epoprostenol-cAMP production curve in CHO/hIP cells (left shift value). Format: cell-based. The note with it: Table 4, concentration of test compound that halves the EC50 of epoprostenol. As to the method: The effect of a test compound on the cAMP production curve with respect to the IP agonist epoprostenol (manufactured by GlaxoSmithKline) was investigated using CHO-K1 cells (CHO/hIP cells) in which human PGI2 receptors (hIP) are stably expressed.
(§1) An amount of 5 μL of a mixture (diluted in F-12 culture medium (manufactured by GIBCO) including 0.1% BSA) of epoprostenol dissolved in DMSO and a test compound dissolved in DMSO was dispensed in advance into a 384-well black microplate, and 5 μL of CHO/hIP cells suspended at a concentration of 1.4×10^6 cells/mL in F-12 culture medium including 0.1% BSA were added to the microplate. After 40 minutes of incubation at room temperature, the amount of cAMP was measured using a cAMP assay kit (cAMP HiRange, manufactured by Cisbio Bioassays). Specifically, 5 μL of a cAMP-d2 solution (including a cell lysate) from the kit were added and the reaction was stopped, then 5 μL of a fluorescence-labeled cAMP antibody solution from the kit were added and incubation was performed for 1 hour at room temperature, after which fluorescence was measured using a PHERAstar plate reader (manufactured by BMG) in HTRF (registered trademark) mode. The amount of cAMP in each well was calculated from a cAMP calibration curve obtained using a standard sample, and an epoprostenol-cAMP production curve for the presence of various concentrations of the test compound was created.
For orientation: cAMP levels reflect the balance of adenylyl cyclase and phosphodiesterase activity.

In assay [2] the target is T1, human PGI2 receptors (hIP). In words: Method D: effect on cAMP production in human aortic smooth muscle cells (left shift value). The note with it: concentration of test compound that halves the EC50 of epoprostenol. The assay is classed as cell-based. As to the method:
The effect of a test compound on the cAMP production curve with respect to the IP agonist epoprostenol (manufactured by GlaxoSmithKline) was investigated using human aortic smooth muscle cells known to express human PGI2 receptors (hIP).
as §1, with “created. […]” for “created.”

The test system of assay [3] is thoracic aorta of the marmot. In words: Magnus test using a blood vessel removed from a marmot. The note with it: 20 μM of test compound; FIG. 2. As to the method: An incision was made in the thoracic region of a marmot (slc/Harley, male, 11-12 weeks of age) under anesthesia, and the thoracic aorta of the marmot was removed. The vascular endothelium was removed using a thread, after which the blood vessel was cut into a round slice having a width of approximately 2 mm and fixed to a fixing rod using thread or a stainless steel hook, and placed in a 10 mL Magnus tube maintained at a temperature of 37° C. and saturated with a 95% O2/5% CO2 gas mixture, and a tension of 1 g was placed on the blood vessel. When the tension on the specimen became stable, phenylephrine (phenylephrine hydrochloride, PHE, manufactured by Sigma-Aldrich Japan, final concentration: 3×10^−6 mol/L) was added thereto to cause the specimen to contract, the test compound or a solvent was added when the contraction became stable, the IP agonist beraprost (beraprost sodium, manufactured by Cayman Chemical) was cumulatively added after 15 minutes to give a final concentration of 1 nM to 1000 nM, and the change in relaxation response was recorded.
The contraction inhibition rate for each set of data was calculated using a contraction rate of 100% as the control (DMSO addition).

T1 sequence (P43119 whole entry): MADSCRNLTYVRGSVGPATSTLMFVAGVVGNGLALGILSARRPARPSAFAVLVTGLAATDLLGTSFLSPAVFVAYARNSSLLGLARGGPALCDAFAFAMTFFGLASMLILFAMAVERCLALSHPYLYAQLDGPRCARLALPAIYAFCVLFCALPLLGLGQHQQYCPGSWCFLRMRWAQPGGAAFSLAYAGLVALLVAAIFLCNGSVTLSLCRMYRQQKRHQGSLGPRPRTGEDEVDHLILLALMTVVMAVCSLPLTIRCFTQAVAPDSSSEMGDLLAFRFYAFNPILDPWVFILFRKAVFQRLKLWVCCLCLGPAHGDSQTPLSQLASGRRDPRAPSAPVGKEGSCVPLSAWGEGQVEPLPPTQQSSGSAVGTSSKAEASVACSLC

Consider `CC(C)(C)n1nnnc1C(c1ccccc1F)N1CCc2ccccc2C1` (centres unmarked) [Example 54], for which the values for the left shift value in assay [1] and in assay [2] were 4.7 µM and 2.9 µM, respectively.

Turning to `COc1ccccc1C(c1nnnn1C(C)(C)C)N1CCc2ccccc2C1` (centres unmarked) [Example 51], the left shift value in assay [1] was 4.3 µM; in assay [2] it was 3.9 µM. In addition, in assay [3], the “enhancement of vasoconstriction inhibition (vasorelaxation) with respect to beraprost” value was “an enhancement of vasoconstriction inhibition (vasorelaxation) with respect to the IP agonist beraprost was recognized”.
